Measured values taken from patent publication US9557338B2 (SIGNAL PHARMACEUTICALS, LLC, priority 2012, dated 2017).

What was measured:
Format in all cases: cell-based
Phospho-PRAS40(T246) = experiment: Luminex multiplex assay, Phospho-PRAS40(T246); conditions: PC3 cell line; read-out: Luminex PRAS40
Excerpt: (§1) Determination of Phospho-GSK3β(S9), Phospho-PRAS40(T246) and Phospho-4E-BP1(T46) and the Effect of Compound 1 or Rapamycin.
(§2) The multiplex Luminex assay format differs from conventional enzyme-linked immunosorbent assay (ELISA) in that the multiplex capture antibody is attached to a polystyrene bead whereas the ELISA capture antibody is attached to the microplate well. The use of the suspension bead-based technology enables the multiplexing capabilities of the Luminex assays. The xMAP® technology uses 5.6 micron polystyrene microspheres, which are internally dyed with red and infrared fluorophores of differing intensities. Each bead is given a unique number, or bead region, allowing differentiation of one bead from another. Beads covalently bound to different specific antibodies can be mixed in the same assay, utilizing a 96-well microplate format. At the completion of the sandwich immunoassay, beads can be read, using the Luminex 100™ or Luminex 200 detection system, in single-file by dual lasers for classification and quantification of each analyte. The Akt-Pathway Phospho 5-plex kit used was custom made and includes the ability to simultaneously measure p-GSK3β (S9), p-PRAS40(T246), and p-4E-BP1(T46).
(§3) Cells were plated at the required density. The cells were treated with either Compound 1 or rapamycin over a range of concentrations for 1 hour in 5% CO2 at 37° C. Compound 1 and rapamycin were used at the same concentrations as for the proliferation assay. As for the cell proliferation assay, a reference standard was included in the assay for PC3 cells and the coefficient of variation for assay of p-GSK3β(S9) was 37.8% (n=30), p-PRAS40(T246) was 27.8% (n=30) and for p4E-BP1(T46) was 13.5% (n=4). For three cell lines (HCT-116, MDA-MB-231 and HT29) in the assay for phosphorylation of GSK3β, PRAS40 and 4E-BP1, IGF-I stimulation (500 ng/mL, recombinant human IGF-I) for the last 10 min of incubation was used. The media was aspirated from the wells and the plate was placed on ice. Then 35 μL of Lysis Buffer was added to each well and incubated on ice for at least 30 minutes. During the incubation, the standard curve for each phosphoprotein was prepared. The standards provided were reconstituted and serial dilutions were prepared according to the manufacturer's instructions. At the end of the cell lysis step, […] of the lysate was transferred to a V-bottom plate and spun at 4° C. at 2000 rpm for 5 minutes. Both the 1× Luminex bead and 1× detector antibody solutions were prepared during this time. The 1× bead solution was vortexed and 25 μL was added into each well of a black round bottom plate. Then 50 μL of the 1× detector antibody was added to each well. Fifty microliters (50 μL) of the prepared standards were added to the designated wells. Then 25 μL of the assay diluent was added to each well designated for the compound-treated cell lysates. At the end of the spin, 25 μL of cell lysate was added to the corresponding wells of the black assay plate. The assay plate was covered with the white plate lid and incubated for 3 hours at room temperature on an orbital shaker.
(§4) Approximately 10-15 minutes prior to the end of the first incubation, the secondary antibody solution was prepared according to the vendor's protocol. Goat anti-rabbit R-phycoerythrin red fluorescent protein (RPE) supplied as a 10× concentrate was diluted to generate a 1× goat anti-rabbit RPE stock. The 96-well filter plate was pre-wet with 200 μL of 1× Working wash solution. At the end of the 3 hour incubation, a multichannel pipette was used to transfer the entire contents from each assay well into the wells of the filter plate. The liquid from the wells was removed by aspiration with the vacuum manifold. Then 200 μL of 1× Working wash solution was added into each well. The wash solution was aspirated using the vacuum manifold after 15-30 seconds. This wash step was repeated one time. The bottom of the plate was blotted on clean paper towels to remove residual liquid. […]

p70S6K = experiment: Luminex multiplex assay, p70S6K phosphorylation in cell lysates; conditions: PC3 cell line; read-out: Luminex p70S6K
Excerpt: as §2, §3, §4

Phospho-GSK3β(S9) = experiment: Luminex multiplex assay, Phospho-GSK3β(S9); conditions: PC3 cell line; read-out: Luminex GSK-3β
Excerpt: as §1, §2, §3, §4

SMILES	IC50 (Phospho-PRAS40(T246)) [µM]	IC50 (p70S6K) [µM]	IC50 (Phospho-GSK3β(S9)) [µM]
CO[C@H]1CC[C@H](N2CC(=O)Nc3ncc(-c4ccc(C(C)(C)O)nc4)nc32)C1 [C-24]	3.66	0.843	> 5
CO[C@@H]1CC[C@@H](CN2CC(=O)Nc3ncc(-c4ccc(C(C)(C)O)nc4)nc32)C1 [C-25]	0.705	0.094	1.78
CO[C@H]1CC[C@H](CN2CC(=O)Nc3ncc(-c4ccc(C(C)(C)O)nc4)nc32)C1 [C-26]	0.498	0.104	1.43
COCCN1C(=O)CNc2ncc(-c3ccc(-c4nnc[nH]4)c(F)c3)nc21 [C-27]	0.027	0.008	0.032
CO[C@@H]1CC[C@H](N2CC(=O)Nc3ncc(-c4ccc(C(C)(C)O)nc4)nc32)C1 [C-28]	2.36	0.452	> 5
COC1CCC(N2CC(=O)Nc3ncc(-c4ccc(C(C)(C)O)nc4)nc32)C1 (stereo not drawn) [C-29]	2.13	0.235	> 5
Cc1cc(-c2nnc[nH]2)ncc1-c1cnc2c(n1)N(CC1CCOCC1)C(C)(C)C(=O)N2 [C-30]	0.005	0.001	0.021
Cc1cc(-c2nnc[nH]2)ccc1-c1cnc2c(n1)N(Cc1ccccc1)C(=O)CN2 [C-31]	0.014	0.002	> 5
COCCN1CC(=O)Nc2ncc(-c3ccc(-c4nnc[nH]4)c(F)c3C)nc21 [C-32]	0.059	0.012	0.169
Cc1c(-c2cnc3c(n2)N(CCC2CCOCC2)CC(=O)N3)ccc(-c2nnc[nH]2)c1F [C-34]	1.52	0.021	> 5
Cc1cc(-c2cnc3c(n2)N(CC2CCOCC2)C(=O)CN3)cc2[nH]c(=O)[nH]c12 [C-38]	3.25	5	> 5
CNc1nc2c(C)cc(-c3cnc4c(n3)N(CCOC)C(=O)CN4)cc2[nH]1 [C-39]	1.41	0.283	> 5
O=C1CN(CCC2CCOCC2)c2nc(-c3ccc4[nH]ccc4c3)cnc2N1 [C-40]	> 5	1.52	> 5
O=C1CN(CCC2CCOCC2)c2nc(-c3ccc4cc[nH]c4c3)cnc2N1 [C-41]	5	0.746	3.18
COC1CCC(CN2C(=O)CNc3ncc(-c4ccc(C(C)(C)O)nc4)nc32)CC1 (stereo not drawn) [C-42]	0.044	0.016	0.268
COCCn1c(=O)[nH]c2ncc(-c3cnc4[nH]ccc4c3)nc21 [C-43]	0.524	0.201	0.214
O=C1CN(CCC2CCOCC2)c2nc(-c3cnc4[nH]ccc4c3)cnc2N1 [C-44]	0.098	0.017	0.313
CC(C)(O)c1ccc(-c2cnc3c(n2)N(C2CCOCC2)C(=O)CN3)cn1 [C-47]	1.47	0.497	3.11
COC1CCC(N2C(=O)CNc3ncc(-c4ccc(C(C)(C)O)cc4)nc32)CC1 (stereo not drawn) [C-48]	0.415	0.08	0.502
O=C1CNc2ncc(-c3ccc4cc[nH]c4c3)nc2N1CCC1CCOCC1 [C-49]	1.99	0.468	3.84
CO[C@H]1CC[C@H](N2CC(=O)Nc3ncc(-c4ccc(-c5nnc[nH]5)nc4C)nc32)C1 [C-50]	> 0.5	0.048	> 0.5
COC1CCC(N2CC(=O)Nc3ncc(-c4ccc(-c5nnc[nH]5)nc4C)nc32)C1 (stereo not drawn) [C-51]	0.816	0.046	0.859

Now from value to compound:

IC50 (Phospho-PRAS40(T246)) [µM]	IC50 (p70S6K) [µM]	IC50 (Phospho-GSK3β(S9)) [µM]	SMILES
0.96	0.088	1.1	COC1CCC(N2CC(=O)Nc3ncc(-c4ccc(-c5nnc[nH]5)nc4C)nc32)C1 (stereo not drawn) [C-52]
1.16	0.232	1.14	COC1CCC(N2CC(=O)Nc3ncc(-c4ccc(-c5nnc[nH]5)nc4C)nc32)C1 (stereo not drawn) [C-53]
0.228	0.025	0.341	O=C1CNc2ncc(-c3ccc4[nH]ccc4c3)nc2N1CCC1CCOCC1 [C-55]
0.113	0.045	0.269	CO[C@H]1CC[C@H](N2C(=O)CNc3ncc(-c4ccc(-c5nnc[nH]5)nc4C)nc32)C1 [C-56]
0.123	0.006	0.17	CO[C@H]1CC[C@@H](N2C(=O)CNc3ncc(-c4ccc(-c5nnc[nH]5)nc4C)nc32)C1 [C-57]
0.209	0.048	0.507	CO[C@@H]1CC[C@@H](N2C(=O)CNc3ncc(-c4ccc(-c5nnc[nH]5)nc4C)nc32)C1 [C-58]
0.099	0.028	0.126	COC1CCC(N2C(=O)CNc3ncc(-c4ccc(-c5nnc[nH]5)nc4C)nc32)C1 (stereo not drawn) [C-59]
0.021	0.003	0.033	O=C1CNc2ncc(-c3cnc4[nH]ccc4c3)nc2N1CCC1CCOCC1 [C-61]
0.349	0.033	0.568	O=C1CNc2ncc(-c3ccc4[nH]ncc4c3)nc2N1CCC1CCOCC1 [C-62]
0.842	0.216	0.927	NC(=O)c1ccc(-c2cnc3c(n2)N(CCC2CCOCC2)C(=O)CN3)cc1 [C-63]
0.349	0.061	0.299	CC(C)(O)c1ccc(-c2cnc3c(n2)N([C@H]2CC[C@@H](O)CC2)C(=O)CN3)cn1 [C-64]
0.207	0.04	0.266	CC(C)(O)c1ccc(-c2cnc3c(n2)N([C@H]2CC[C@H](O)CC2)C(=O)CN3)cn1 [C-65]
> 1.5	> 1.5	> 1.5	O=C1CNc2ncc(-c3cnc4nc[nH]c4c3)nc2N1CCC1CCOCC1 [C-67]
> 1.5	0.752	> 1.5	O=C1CN(CCC2CCOCC2)c2nc(-c3ccc4cn[nH]c4c3)cnc2N1 [C-68]
> 1.5	0.54	0.7	CC(C)(O)c1ccc(-c2cnc3c(n2)N(CCN2CCOCC2)C(=O)CN3)cn1 [C-70]
> 1.5	> 1.5	> 1.5	O=C1CN(CCC2CCOCC2)c2nc(-c3cnc4nc[nH]c4c3)cnc2N1 [C-74]
> 1.5	0.173	> 1.5	O=C1CNc2ncc(-c3ccc4cn[nH]c4c3)nc2N1CCC1CCOCC1 [C-75]
> 1.5	> 1.5	> 1.5	O=c1[nH]c2ncc(-c3ccc(C4(O)COC4)nc3)nc2n1CCC1CCOCC1 [C-76]
> 1.5	> 1.5	> 1.5	O=c1[nH]c2ncc(-c3ccc(C4(O)COC4)cn3)nc2n1CCC1CCOCC1 [C-77]
> 1.5	1.29	> 1.5	COC1CCC(N2C(=O)CNc3ncc(-c4ccc(C(C)(C)O)nc4)nc32)C1 (stereo not drawn) [C-78]
> 1.5	0.981	> 1.5	CO[C@H]1CC[C@H](N2C(=O)CNc3ncc(-c4ccc(C(C)(C)O)nc4)nc32)C1 [C-79]
0.724	0.133	0.841	CO[C@@H]1CC[C@H](N2C(=O)CNc3ncc(-c4ccc(C(C)(C)O)nc4)nc32)C1 [C-80]
0.847	0.134	> 1.5	COC1CCC(N2C(=O)CNc3ncc(-c4ccc(C(C)(C)O)nc4)nc32)C1 (stereo not drawn) [C-81]
> 1.5	0.467	> 1.5	COC1CCC(N2CC(=O)Nc3ncc(-c4cnc(C(N)=O)cc4C)nc32)CC1 (stereo not drawn) [C-82]
